IC50, half-life and CC50 data for 18 compounds are collected here from ChEMBL document CHEMBL5344473, “Inhibition of N-type calcium channels by phenoxyaniline and sulfonamide analogues” (RSC Med Chem, 2024).

Series [1] has as its target Voltage-dependent N-type calcium channel subunit alpha-1B (Homo sapiens, UniProt Q00975). Kind of series: Inhibition of Cav2.2 in human SH-SY5Y cells assessed as inhibition of calcium influx measured for 300 secs in presence of Cav1 blocker, nifedipine by FLIPR assay. It counts as cell-based.
The nature of a further series: in vitro. The conditions noted are these: Sprague-Dawley, rat, plasma.
Series [2] is described as follows: Cytotoxicity against African green monkey COS7 cells assessed as reduction in cell viability measured after 20 hrs by CellTiter-Blue reagent based fluorescence analysis. The conditions noted are these: chlorocebus aethiops. In general terms: Alamar Blue is a resazurin reagent that responds to reducing activity.
In series [3] the target is Voltage-dependent T-type calcium channel subunit alpha-1H (Homo sapiens, UniProt O95180). Description: Inhibition of human recombinant Cav3.2 alpha1 subunit expressed in HEK293T cells assessed as inhibition of calcium influx measured for 300 secs by FLIPR assay. The format is cell-based.
Voltage-dependent T-type calcium channel subunit alpha-1H, sequence (O95180 whole entry): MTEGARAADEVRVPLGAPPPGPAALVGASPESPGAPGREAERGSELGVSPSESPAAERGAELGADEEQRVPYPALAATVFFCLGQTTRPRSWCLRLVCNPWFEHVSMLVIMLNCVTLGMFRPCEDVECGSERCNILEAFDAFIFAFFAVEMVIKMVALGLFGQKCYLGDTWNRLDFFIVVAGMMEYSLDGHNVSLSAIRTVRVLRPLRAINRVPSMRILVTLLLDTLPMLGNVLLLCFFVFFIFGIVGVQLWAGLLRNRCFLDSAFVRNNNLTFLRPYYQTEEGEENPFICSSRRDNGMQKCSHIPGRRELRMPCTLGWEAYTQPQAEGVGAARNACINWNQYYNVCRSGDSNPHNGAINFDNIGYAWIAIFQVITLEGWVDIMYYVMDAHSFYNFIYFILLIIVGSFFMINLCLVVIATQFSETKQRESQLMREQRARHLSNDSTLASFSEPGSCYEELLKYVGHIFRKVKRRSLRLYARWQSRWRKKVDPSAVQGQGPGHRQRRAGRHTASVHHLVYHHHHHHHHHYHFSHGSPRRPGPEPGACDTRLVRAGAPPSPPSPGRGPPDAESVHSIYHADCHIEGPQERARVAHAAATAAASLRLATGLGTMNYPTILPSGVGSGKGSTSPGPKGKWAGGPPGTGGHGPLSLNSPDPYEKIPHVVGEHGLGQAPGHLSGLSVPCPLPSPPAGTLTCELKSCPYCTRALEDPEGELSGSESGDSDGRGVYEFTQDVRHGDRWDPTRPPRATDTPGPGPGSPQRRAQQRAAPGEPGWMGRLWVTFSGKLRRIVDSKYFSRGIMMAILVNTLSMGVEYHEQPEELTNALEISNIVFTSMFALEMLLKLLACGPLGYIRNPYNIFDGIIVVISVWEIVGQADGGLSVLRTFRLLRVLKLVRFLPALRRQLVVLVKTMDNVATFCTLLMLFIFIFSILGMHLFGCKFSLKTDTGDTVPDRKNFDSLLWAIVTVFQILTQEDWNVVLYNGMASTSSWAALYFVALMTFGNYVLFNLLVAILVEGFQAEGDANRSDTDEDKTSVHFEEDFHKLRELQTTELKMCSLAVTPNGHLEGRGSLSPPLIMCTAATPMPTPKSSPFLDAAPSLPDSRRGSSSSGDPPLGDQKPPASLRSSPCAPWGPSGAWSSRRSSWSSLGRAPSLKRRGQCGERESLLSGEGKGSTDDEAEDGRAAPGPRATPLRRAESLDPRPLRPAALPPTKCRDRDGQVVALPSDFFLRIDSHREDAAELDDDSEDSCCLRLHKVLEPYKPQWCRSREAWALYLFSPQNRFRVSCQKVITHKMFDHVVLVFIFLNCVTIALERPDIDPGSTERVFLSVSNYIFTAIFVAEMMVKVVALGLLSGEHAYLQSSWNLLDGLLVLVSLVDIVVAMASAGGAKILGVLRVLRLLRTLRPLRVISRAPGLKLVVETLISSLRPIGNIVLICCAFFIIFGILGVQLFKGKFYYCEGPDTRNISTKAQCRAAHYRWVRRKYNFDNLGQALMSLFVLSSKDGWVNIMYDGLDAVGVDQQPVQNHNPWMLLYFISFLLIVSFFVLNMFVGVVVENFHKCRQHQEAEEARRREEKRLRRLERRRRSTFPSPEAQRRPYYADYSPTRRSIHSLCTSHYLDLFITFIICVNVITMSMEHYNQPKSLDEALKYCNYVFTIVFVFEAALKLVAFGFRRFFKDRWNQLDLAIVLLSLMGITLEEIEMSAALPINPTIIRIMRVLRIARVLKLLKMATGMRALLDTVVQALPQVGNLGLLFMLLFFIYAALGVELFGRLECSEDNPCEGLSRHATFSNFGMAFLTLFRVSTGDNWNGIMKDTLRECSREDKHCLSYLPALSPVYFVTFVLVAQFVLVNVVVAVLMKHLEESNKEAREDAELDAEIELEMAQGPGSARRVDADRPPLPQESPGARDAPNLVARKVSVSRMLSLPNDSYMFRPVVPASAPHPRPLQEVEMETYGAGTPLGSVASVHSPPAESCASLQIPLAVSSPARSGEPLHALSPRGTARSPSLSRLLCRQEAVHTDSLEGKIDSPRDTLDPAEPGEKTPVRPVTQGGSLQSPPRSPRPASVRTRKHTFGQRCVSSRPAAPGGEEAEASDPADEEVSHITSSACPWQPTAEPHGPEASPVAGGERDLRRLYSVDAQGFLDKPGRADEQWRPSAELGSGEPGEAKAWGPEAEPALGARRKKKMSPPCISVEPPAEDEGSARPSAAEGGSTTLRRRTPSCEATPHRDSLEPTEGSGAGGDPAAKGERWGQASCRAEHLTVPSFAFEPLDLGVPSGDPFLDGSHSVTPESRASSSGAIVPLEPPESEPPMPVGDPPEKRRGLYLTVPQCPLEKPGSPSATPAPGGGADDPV

Voltage-dependent N-type calcium channel subunit alpha-1B, sequence (Q00975 whole entry): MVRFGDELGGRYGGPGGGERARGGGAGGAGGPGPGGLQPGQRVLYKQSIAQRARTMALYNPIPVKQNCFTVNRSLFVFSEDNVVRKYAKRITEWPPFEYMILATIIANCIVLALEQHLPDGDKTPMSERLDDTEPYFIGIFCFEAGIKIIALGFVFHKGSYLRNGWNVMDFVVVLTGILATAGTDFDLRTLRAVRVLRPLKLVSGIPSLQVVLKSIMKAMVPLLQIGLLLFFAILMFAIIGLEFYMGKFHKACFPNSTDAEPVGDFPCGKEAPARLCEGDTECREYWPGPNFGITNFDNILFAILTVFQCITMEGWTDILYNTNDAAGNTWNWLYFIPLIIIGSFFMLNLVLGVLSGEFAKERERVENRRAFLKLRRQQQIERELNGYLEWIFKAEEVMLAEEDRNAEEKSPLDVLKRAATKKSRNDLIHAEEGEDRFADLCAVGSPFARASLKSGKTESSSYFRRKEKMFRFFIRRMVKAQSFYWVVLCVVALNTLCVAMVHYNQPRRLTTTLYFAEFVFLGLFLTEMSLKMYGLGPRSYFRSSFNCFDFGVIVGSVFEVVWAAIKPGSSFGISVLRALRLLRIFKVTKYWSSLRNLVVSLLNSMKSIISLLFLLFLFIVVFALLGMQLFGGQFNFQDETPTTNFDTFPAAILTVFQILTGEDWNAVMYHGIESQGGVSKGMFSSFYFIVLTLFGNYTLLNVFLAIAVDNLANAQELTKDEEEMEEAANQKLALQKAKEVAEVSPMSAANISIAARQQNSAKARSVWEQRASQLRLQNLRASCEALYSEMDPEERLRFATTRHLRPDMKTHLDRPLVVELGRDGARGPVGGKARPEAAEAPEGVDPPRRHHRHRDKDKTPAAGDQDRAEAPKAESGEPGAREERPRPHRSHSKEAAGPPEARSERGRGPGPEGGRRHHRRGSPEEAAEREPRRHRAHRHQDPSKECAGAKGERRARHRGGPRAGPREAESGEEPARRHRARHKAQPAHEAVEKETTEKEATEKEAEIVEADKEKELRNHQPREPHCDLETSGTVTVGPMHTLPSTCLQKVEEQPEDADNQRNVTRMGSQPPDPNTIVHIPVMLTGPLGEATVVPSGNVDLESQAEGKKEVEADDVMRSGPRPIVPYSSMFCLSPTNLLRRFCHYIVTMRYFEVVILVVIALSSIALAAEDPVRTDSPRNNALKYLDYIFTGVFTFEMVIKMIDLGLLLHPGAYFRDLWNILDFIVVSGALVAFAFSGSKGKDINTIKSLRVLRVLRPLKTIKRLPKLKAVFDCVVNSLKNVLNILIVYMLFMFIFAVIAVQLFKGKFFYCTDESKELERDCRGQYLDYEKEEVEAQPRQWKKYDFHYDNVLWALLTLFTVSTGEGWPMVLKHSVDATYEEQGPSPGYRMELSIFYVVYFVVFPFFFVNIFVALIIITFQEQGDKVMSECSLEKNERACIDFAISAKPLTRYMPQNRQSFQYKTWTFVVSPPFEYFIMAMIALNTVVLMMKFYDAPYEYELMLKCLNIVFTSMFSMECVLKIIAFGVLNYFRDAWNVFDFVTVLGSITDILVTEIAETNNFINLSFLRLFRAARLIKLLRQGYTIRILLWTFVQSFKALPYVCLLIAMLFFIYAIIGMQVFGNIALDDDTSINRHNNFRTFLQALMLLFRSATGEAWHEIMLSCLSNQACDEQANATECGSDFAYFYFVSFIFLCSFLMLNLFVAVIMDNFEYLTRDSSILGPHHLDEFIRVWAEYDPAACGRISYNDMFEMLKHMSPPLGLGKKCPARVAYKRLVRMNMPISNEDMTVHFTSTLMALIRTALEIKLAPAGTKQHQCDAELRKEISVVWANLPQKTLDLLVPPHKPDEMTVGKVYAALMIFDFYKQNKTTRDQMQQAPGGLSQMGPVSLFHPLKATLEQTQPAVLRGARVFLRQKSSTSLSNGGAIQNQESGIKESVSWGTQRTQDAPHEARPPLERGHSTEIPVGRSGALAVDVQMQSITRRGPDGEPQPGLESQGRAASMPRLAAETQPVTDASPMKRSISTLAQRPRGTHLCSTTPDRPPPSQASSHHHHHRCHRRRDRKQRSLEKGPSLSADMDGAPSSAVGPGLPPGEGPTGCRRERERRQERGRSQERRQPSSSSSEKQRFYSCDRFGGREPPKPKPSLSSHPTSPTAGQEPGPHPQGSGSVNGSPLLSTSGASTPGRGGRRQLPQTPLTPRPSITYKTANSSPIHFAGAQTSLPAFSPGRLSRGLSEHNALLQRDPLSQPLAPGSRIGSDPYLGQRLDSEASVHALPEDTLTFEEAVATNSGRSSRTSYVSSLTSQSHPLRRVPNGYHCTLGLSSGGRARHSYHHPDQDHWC

As to `CC(C)[C@H]1c2ccc(F)cc2CC[C@@]1(CCN(C)CCCc1nc2ccccc2[nH]1)OC(=O)C1CC1`, in series [1], the half-maximal inhibitory concentration (IC50) came to 24.3 µM.
`CN(C)CCCOc1ccc(C(=O)Nc2ccccc2Oc2ccc(F)cc2)cc1` registered a half-life at 150 µM in the series “in vitro” of approximately 1.5 h.
Turning to `CN(C)CCCOc1ccc(C(=O)Nc2ccccc2Oc2ccccc2)cc1`, the CC50 at 20 h in series [2] was more than 100 µM.
With `FC(F)(F)c1ccc(Oc2ccccc2NCc2ccc(OCCCN3CCCC3)cc2)cc1`, the IC50 in series [1] came to 51 µM; in series [3], 110 µM.
Regarding `FC(F)(F)c1ccc(Oc2ccc(NCc3ccc(OCCCN4CCCC4)cc3)cc2)cc1`, the IC50 was determined as 50 µM in series [1] and 182 µM in series [3]. The compound also showed a half-life at 150 µM in the series “in vitro” of more than 60 h.
In the case of `Fc1ccc(Oc2ccc(NCc3ccc(OCCCN4CCCC4)cc3)cc2)cc1`, the IC50 amounted to 48 µM in series [1] and 208 µM in series [3]. Besides, in the series “in vitro”, the half-life at 150 µM was more than 60 h.
In the same order, the values of `c1ccc(Oc2cccc(NCc3ccc(OCCCN4CCCCC4)cc3)c2)cc1` are 63 µM, 200 µM and more than 60 h.
For `N#Cc1ccc(Oc2ccc(NCc3ccc(OCCCN4CCCC4)cc3)cc2)cc1` the same measures were 28 µM, 146 µM and more than 60 h.
In the same order, the values of `c1ccc(Oc2cccc(NCc3ccc(OCCCn4ccnc4)cc3)c2)cc1` are 68 µM, 258 µM and more than 60 h.
`Fc1ccc(Oc2ccccc2NCc2ccc(OCCCn3ccnc3)cc2)cc1`: the IC50 in series [1] turned out to be 33 µM; in series [3] it was 196 µM. The half-life at 150 µM in “in vitro” is more than 60 h.
Take `CN(C)CCCOc1ccc(S(=O)(=O)Nc2cccc(Oc3ccccc3)c2)cc1`: the figures for the IC50 in series [1] and in series [3] were 10 µM and 142 µM, respectively. Besides, the half-life at 150 µM in “in vitro” was more than 60 h.
In the same order, the values of `CNCCCOc1ccc(CNc2ccccc2Oc2ccc(C(F)(F)F)cc2)cc1` are 58 µM, 204 µM and more than 60 h.
With `N#Cc1ccc(Oc2ccc(NCc3ccc(OCCCN4CCCCC4)cc3)cc2)cc1`, the IC50 came out at 19 µM in series [1] and 22 µM in series [3]. In “in vitro”, this compound displayed a half-life at 150 µM of more than 60 h.
For `Fc1ccc(Oc2cccc(NCc3ccc(OCCCN4CCCCC4)cc3)c2)cc1`, the IC50 came to 20 µM in series [1] and 292 µM in series [3]. This compound yielded a half-life at 150 µM in the series “in vitro” of more than 60 h.
For `c1ccc(Oc2ccc(NCc3ccc(OCCCN4CCCC4)cc3)cc2)cc1` the same measures were 36 µM, 201 µM and more than 60 h.
Consider `N#Cc1ccc(Oc2ccc(NCc3ccc(OCCCn4ccnc4)cc3)cc2)cc1`, for which the results for the IC50 in series [1] and in series [3] were 75 µM and 371 µM, respectively. In “in vitro”, the half-life at 150 µM was more than 60 h.
As to `CN(C)CCCOc1ccc(CNc2ccc(Oc3ccc(F)cc3)cc2)cc1`, the half-inhibitory concentration (IC50) in series [1] amounted to 39 µM; in series [3], 227 µM. Further, in “in vitro”, the half-life at 150 µM is more than 60 h.
In the same order, the values of `Fc1ccc(Oc2ccc(NCc3ccc(OCCCn4ccnc4)cc3)cc2)cc1` are 68 µM, 337 µM and more than 60 h.

By IC50 is commonly meant the concentration that gives 50% inhibition. What is called half-life is how long it takes for the measured level to halve. One may read the CC50 as the concentration giving 50% cytotoxicity.
